Like-named read-outs stand apart in the source and are kept apart here.
System: C3H10 T1/2 cells
Experiment: Adipocyte differentiation / automated determination of lipid accumulation in adipocytes
Format: cell-based
Settings: Mus musculus, C3H 10T1/2, 168 h, 50 micromolar chicoric acid, differentiated C3H10 T1/2 adipocytes, 7 days in DM-Supplemented (200nM Insulin, 10µM Rosiglitazone)
Protocol: C3H10 T1/2 cells were seeded on Collagen Type I coated 24-well plates at a cell density of 3.8x10^4 cells/mL in Differentiation Base medium (DM-Base), containing DMEM without Phenol Red, supplemented with 10% FCS, 4mM L-Glutamine and 1% Pen/Strep (v/v) at 37° C in an incubator with 5% CO2 atmosphere and 85%-90% relative humidity over 72hours. After this pre-incubation, DM-Base is replaced by DM-Supplemented, containing DM-Base plus 200nM Insulin, plus 10µM Rosiglitazone. Test compounds (e.g.: chicoric acid) were added in DM-Supplemented, and kept in culture for 7 consecutive days. Each experiment was performed in triplicates. Every second day medium and compounds were renewed.
Cells were fixed by adding 1mL of 60% 2-Propanot in PBS to each well and incubated for 1.5h at 4°C. The cells were then twice washed with 1mL PBS/well. […]
Lipid droplets were quantified with the Cellomics® Array Scan® VTI HCS Reader. Fat droplets were detected with the provided SpotDetector® Bio-Application. The fluorescent dye, BODIPY® 493/503, was used to visualise and quantify fat droplets (number, area, intensity) in differentiated C3H10 T1/2 adipocytes. […] Channel one (Ch1) applies the XF93-Hoechst filter and is the focus channel in which objects (nuclei) are identified, whereas the spots (fat droplets) are detected in channel two (Ch2) using a XF93-FITC filter.

## O=C(/C=C/c1ccc(O)c(O)c1)O[C@H](C(=O)O)[C@H](OC(=O)/C=C/c1ccc(O)c(O)c1)C(=O)O (stereo in doubt) [chicoric acid, Chicoric acid]
read-out: decrease in the average number of lipid droplets per adipocyte
  inhibition at 50 µM: 69%
read-out: decrease in the average size of the lipid droplets in adipocytes
  inhibition at 50 µM: 42%

— patent EP2848286A1, “Cosmetic composition comprising chicoric acid” (DSM IP Assets B.V., priority 2013, dated 2015)
